Experimental data: US10562891B2, “Quinazolinones as PARP14 inhibitors” (Ribon Therapeutics Inc., priority 2017, dated 2020)
Structures can show the parent of a compound that is named as a salt.

The compounds below were run against catalytic domain of human PARP14 (Homo sapiens (Human), UniProt Q460N5) (assay: Enzymatic assay for inhibition of PARP14 (DELFIA, auto-modification with biotin-NAD)). Conditions: auto-modification of PARP14 by biotin-NAD, 50 nM PARP14, 3 μM biotin-NAD.
Assay type: biochemical
Summary of the method: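 DELFIA auto-modification read-out: europium-streptavidin bound to biotin-NAD incorporated onto nickel-captured His-TEV PARP14 catalytic domain. Compound preincubated 30 min, then 50 nM enzyme with 3 μM biotin-NAD reacted 3 h, all at 25 °C, pH 8, then NAD quench. Percent inhibition normalized to rucaparib/DMSO wells, fitted (4- or 3-parameter) for IC50.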

Chain of catalytic domain of human PARP14 (Q460N5 1611-1801): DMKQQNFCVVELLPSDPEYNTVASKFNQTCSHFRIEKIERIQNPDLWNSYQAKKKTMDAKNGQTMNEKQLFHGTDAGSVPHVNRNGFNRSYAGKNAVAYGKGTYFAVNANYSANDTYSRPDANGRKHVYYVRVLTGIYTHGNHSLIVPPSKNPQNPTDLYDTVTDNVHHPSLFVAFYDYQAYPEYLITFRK

Question: With `O=c1[nH]c(CS[C@H]2CC[C@H](CO)CC2)nc2cc(NC3CCCCC3)ccc12` [Example 136, 7-(Cyclohexylamino)-2-(((trans-4-(hydroxymethyl)cyclohexyl)thio)methyl) quinazolin-4(3H)-one] as the compound, how does the IC50 read?
Answer: Its IC50 is under 1 µM.

Question: With `Cc1ccc(F)c2c(=O)[nH]c(CSC3CCOCC3)nc12` [Example 8] as the compound, how does the IC50 read?
Answer: Its IC50 is under 1 µM.

Question: `Cc1cccc2c(=O)[nH]c(CSC3CCC(CN(C)C)CC3)nc12` (centres unmarked) [Example 67, 2-(((4-((Dimethylamino)methyl)cyclohexyl)thio)methyl)-8-methylquinazolin-4(3H)-one trifluoroacetate] was tested. Which IC50 did it give?
Answer: Its IC50 is under 1 µM.

Question: How did the IC50 turn out when `COc1cc2c(=O)[nH]c(CSC3CCNCC3)nc2cc1NCC1CCC1` [Example 230, 7-((Cyclobutylmethyl)amino)-6-methoxy-2-((piperidin-4-ylthio)methyl)quinazolin-4(3H)-one Hydrochloride] was run?
Answer: The IC50 was 1 to 10 µM.

Question: For `O=c1[nH]c(CSC2CCOCC2)nc2cc(NC[C@H]3CCOC3)c(F)c(F)c12` [Example 323b, (R)-5,6-Difluoro-2-(((tetrahydro-2H-pyran-4-yl)thio)methyl)-7-(((tetrahydrofuran-3-yl)methyl)amino)quinazolin-4(3H)-one], which IC50 is on record?
Answer: Its IC50 is under 1 µM.

Question: Which IC50 does the source give for `NC(=O)[C@H]1CC[C@H](SCc2nc3cc(OCC4CCC4)cc(F)c3c(=O)[nH]2)CC1` [Example 311, Trans-4-(((7-(cyclobutylmethoxy)-5-fluoro-4-oxo-3,4-dihydroquinazolin-2-yl)methyl)thio)cyclohexane-1-carboxamide] here?
Answer: Its IC50 is 1 to 10 µM.

Question: With `Cc1cccc2c(=O)[nH]c(CSC3CCC(CN)CC3)nc12` (centres unmarked) [Example 64, 2-(((4-(Aminomethyl)cyclohexyl)thio)methyl)-8-methylquinazolin-4(3H)-one Trifluoroacetate] as the compound, how does the IC50 read?
Answer: Its IC50 is under 1 µM.

Question: For `CN1CCN([C@H]2CC[C@H](Nc3cc4nc(CSC5CCOCC5)[nH]c(=O)c4c(F)c3F)CC2)CC1` [Example 346], which IC50 is on record?
Answer: The IC50 was under 1 µM.

Question: With `O=c1[nH]c(CSC2CCOCC2)nc2cc(NC3CCN(Cc4ccccc4)CC3)ccc12` [Example 128, 7-((1-Benzylpiperidin-4-yl)amino)-2-(((tetrahydro-2H-pyran-4-yl)thio)methyl) quinazolin-4(3H)-one] as the compound, how does the IC50 read?
Answer: The IC50 was 1 to 10 µM.

Question: How did the IC50 turn out when `NC(=O)[C@H]1CC[C@H](SCc2nc3cc(NC4CCCC4)cc(F)c3c(=O)[nH]2)CC1` [Example 218, trans-4-(((7-(Cyclopentylamino)-5-fluoro-4-oxo-3,4-dihydroquinazolin-2-yl)methyl)thio)cyclohexane-1-carboxamide] was run?
Answer: The IC50 was under 1 µM.

Question: Which IC50 does the source give for `Cc1cc(NCC2CC2(F)F)cc2nc(CSC3CCNCC3)[nH]c(=O)c12` (centres unmarked) [Example 284, 7-(((2,2-Difluorocyclopropyl)methyl)amino)-5-methyl-2-((piperidin-4-ylthio)methyl)quinazolin-4(3H)-one hydrochloride] here?
Answer: Its IC50 is under 1 µM.

Question: How did the IC50 turn out when `O=c1[nH]c(CSC2CCNCC2)nc2nc(OCC3CC3)ccc12` [Example 229, 7-(Cyclopropylmethoxy)-2-((piperidin-4-ylthio)methyl)pyrido[2,3-d]pyrimidin-4(3H)-one Hydrochloride] was run?
Answer: Its IC50 is under 1 µM.

Question: For `O=c1[nH]c(CS[C@H]2CC[C@H](O)CC2)nc2cc(NC3CCCC3)c(F)c(F)c12` [Example 313, 7-(Cyclopentylamino)-5,6-difluoro-2-(((trans-4-hydroxycyclohexyl)thio)methyl)quinazolin-4(3H)-one], which IC50 is on record?
Answer: The IC50 was under 1 µM.

Question: For `CC(=O)N1CCC(CNc2cc3nc(CS[C@H]4CC[C@H](O)CC4)[nH]c(=O)c3c(F)c2F)CC1` [Example 419], which IC50 is on record?
Answer: Its IC50 is under 1 µM.

Question: How did the IC50 turn out when `Cc1n[nH]cc1CN1CCC(SCc2nc3c(C)cccc3c(=O)[nH]2)CC1` [Example 149, 8-Methyl-2-(((1-((3-methyl-1H-pyrazol-4-yl)methyl)piperidin-4-yl)thio)methyl)quinazolin-4(3H)-one trifluoroacetate] was run?
Answer: Its IC50 is 1 to 10 µM.

Question: How did the IC50 turn out when `Cc1cccc2c(=O)[nH]c(CSC3CCN(Cc4cnc5ccccn45)CC3)nc12` [Example 152, 2-(((1-(Imidazo[1,2-a]pyridin-3-ylmethyl)piperidin-4-yl)thio)methyl)-8-methylquinazolin-4(3H)-one trifluoroacetate] was run?
Answer: Its IC50 is under 1 µM.

Question: How did the IC50 turn out when `CC(C)(C)COc1cc(F)c2c(=O)[nH]c(CSC3CCOCC3)nc2c1` [Example 416] was run?
Answer: Its IC50 is under 1 µM.

Question: How did the IC50 turn out when `O=c1[nH]c(CSC2CCOCC2)nc2cc(OCC3CCNCC3)cc(F)c12` [Example 399] was run?
Answer: Its IC50 is under 1 µM.

Question: `Cc1ccc(F)c2c(=O)[nH]c(CSC3CCC(O)CC3)nc12` (centres unmarked) [Example 56, 5-Fluoro-2-(((4-hydroxycyclohexyl)thio)methyl)-8-methylquinazolin-4(3H)-one] was tested. Which IC50 did it give?
Answer: The IC50 was under 1 µM.

Question: With `Cc1cc(NC2CCCC2)cc2nc(CSC3CCOCC3)[nH]c(=O)c12` [Example 203, 7-(Cyclopentylamino)-5-methyl-2-(((tetrahydro-2H-pyran-4-yl)thio)methyl) quinazolin-4(3H)-one] as the compound, how does the IC50 read?
Answer: Its IC50 is under 1 µM.

Question: Which IC50 does the source give for `Cc1cccc2c(=O)[nH]c(CSC3CCN(Cc4ccccc4OCC#N)CC3)nc12` [Example 155, 2-(2-((4-(((8-Methyl-4-oxo-3,4-dihydroquinazolin-2-yl)methyl)thio)piperidin-1-yl)methyl)phenoxy)acetonitrile trifluoroacetate] here?
Answer: The IC50 was under 1 µM.

Question: Which IC50 does the source give for `Cc1cccc2c(=O)[nH]c(CS[C@@H]3CC[C@@H](CCN)C3)nc12` (relative stereo) [Example 183, 2-((((trans)-3-(2-aminoethyl)cyclopentyl)thio)methyl)-8-methylquinazolin-4(3H)-one] here?
Answer: The IC50 was 1 to 10 µM.

Question: How did the IC50 turn out when `Cc1nccc2c(=O)[nH]c(CSC3CCOCC3)nc12` [Example 42, 8-Methyl-2-(((tetrahydro-2H-pyran-4-yl)thio)methyl)pyrido[3,4-d]pyrimidin-4(3H)-one] was run?
Answer: The IC50 was over 10 µM.

Question: How did the IC50 turn out when `Cc1cccc2c(=O)[nH]c(CSC3CCN(Cc4nn(C)c5ccccc45)CC3)nc12` [Example 143, 8-Methyl-2-(((1-((1-methyl-1H-indazol-3-yl)methyl)piperidin-4-yl)thio)methyl)quinazolin-4(3H)-one trifluoroacetate] was run?
Answer: Its IC50 is 1 to 10 µM.

Question: With `CC(=O)N1CCC(COc2cc(F)c3c(=O)[nH]c(CSC4CCOCC4)nc3c2)C1` (centres unmarked) [Example 367] as the compound, how does the IC50 read?
Answer: The IC50 was under 1 µM.

Question: With `CC(=O)N[C@H]1CC[C@H](SCc2nc3cc(NC4CCC4)c(F)c(F)c3c(=O)[nH]2)CC1` [Example 392] as the compound, how does the IC50 read?
Answer: The IC50 was under 1 µM.

Question: `O=c1[nH]c(CSC2CCOCC2)nc2cc(OC[C@@H]3CCOC3)cc(F)c12` [Example 239a, (R)-5-fluoro-2-(((tetrahydro-2H-pyran-4-yl)thio)methyl)-7-((tetrahydrofuran-3-yl)methoxy)quinazolin-4(3H)-one] was tested. Which IC50 did it give?
Answer: The IC50 was under 1 µM.

Question: With `CS(=O)(=O)CCN1CCC(SCc2nc3cc(NC4CCCC4)cc(F)c3c(=O)[nH]2)CC1` [Example 276, 7-(Cyclopentylamino)-5-fluoro-2-(((1-(2-(methylsulfonyl)ethyl)piperidin-4-yl)thio)methyl)quinazolin-4(3H)-one] as the compound, how does the IC50 read?
Answer: Its IC50 is under 1 µM.

Question: Which IC50 does the source give for `CC(=O)N1CCCC(COc2cc(F)c3c(=O)[nH]c(CSC4CCOCC4)nc3c2)C1` (centres unmarked) [Example 401] here?
Answer: The IC50 was under 1 µM.

Question: With `O=c1[nH]c(CS[C@H]2CC[C@H](O)CC2)nc2cc(NC3CCCC3)c(F)cc12` [Example 293, 7-(Cyclopentylamino)-6-fluoro-2-(((trans-4-hydroxycyclohexyl)thio)methyl)quinazolin-4(3H)-one] as the compound, how does the IC50 read?
Answer: The IC50 was under 1 µM.

Question: `CC(=O)N[C@H]1CC[C@H](SCc2nc3cc(OCC4CC4)cc(F)c3c(=O)[nH]2)CC1` [Example 330, N-((trans)-4-(((7-(Cyclopropylmethoxy)-5-fluoro-4-oxo-3,4-dihydroquinazolin-2-yl)methyl)thio)cyclohexyl)acetamide] was tested. Which IC50 did it give?
Answer: Its IC50 is under 1 µM.

Question: With `CN1CCCC(Nc2ccc3c(=O)[nH]c(CSC4CCOCC4)nc3c2)C1` (centres unmarked) [Example 133, 7-((1-Methylpiperidin-3-yl)amino)-2-(((tetrahydro-2H-pyran-4-yl)thio)methyl)quinazolin-4(3H)-one] as the compound, how does the IC50 read?
Answer: Its IC50 is over 10 µM.

Question: `COc1ccccc1Nc1ccc2c(=O)[nH]c(CSC3CCOCC3)nc2c1` [Example 84, 7-((2-Methoxyphenyl)amino)-2-(((tetrahydro-2H-pyran-4-yl)thio)methyl)quinazolin-4(3H)-one] was tested. Which IC50 did it give?
Answer: The IC50 was 1 to 10 µM.

Question: For `N#Cc1cccc2c(=O)[nH]c(CSC3CCOCC3)nc12` [Example 28, 4-Oxo-2-(((tetrahydro-2H-pyran-4-yl)thio)methyl)-3,4-dihydroquinazoline-8-carbonitrile], which IC50 is on record?
Answer: The IC50 was over 10 µM.

Question: Which IC50 does the source give for `O=c1[nH]c(CSC2CCOCC2)nc2cc(Oc3ccccc3)ccc12` [Example 29, 7-Phenoxy-2-(((tetrahydro-2H-pyran-4-yl)thio)methyl)quinazolin-4(3H)-one] here?
Answer: Its IC50 is 1 to 10 µM.

Question: With `CC(=O)Nc1ccc(CN2CCC(SCc3nc4c(C)cccc4c(=O)[nH]3)CC2)cc1` [Example 139, N-(4-((4-(((8-Methyl-4-oxo-3,4-dihydroquinazolin-2-yl)methyl)thio)piperidin-1-yl)methyl)phenyl)acetamide trifluoroacetate] as the compound, how does the IC50 read?
Answer: The IC50 was under 1 µM.

Question: For `COc1ccc2nc(CSC3CCOCC3)[nH]c(=O)c2c1` [Example 4], which IC50 is on record?
Answer: The IC50 was over 10 µM.

Question: Which IC50 does the source give for `CN1CC[C@H](SCc2nc3cc(NC4CCCC4)cc(F)c3c(=O)[nH]2)[C@@H](F)C1` (relative stereo) [Example 412] here?
Answer: Its IC50 is under 1 µM.

Question: With `CS(=O)(=O)N1CCC[C@@H](Nc2ccc3c(=O)[nH]c(CS[C@H]4CC[C@H](O)CC4)nc3c2)C1` [Example 267, 2-(((Trans-4-hydroxycyclohexyl)thio)methyl)-7-(((R)-1-(methylsulfonyl)piperidin-3-yl)amino)quinazolin-4(3H)-one] as the compound, how does the IC50 read?
Answer: The IC50 was under 1 µM.

Question: How did the IC50 turn out when `Cc1cccc2c(=O)[nH]c(CS[C@H]3CCC[C@H](CO)C3)nc12` (relative stereo) [Example 70, 2-(((trans-3-(Hydroxymethyl)cyclohexyl)thio)methyl)-8-methylquinazolin-4(3H)-one] was run?
Answer: The IC50 was 1 to 10 µM.

Question: `Cc1cccc2c(=O)[nH]c(CS[C@@H]3CCC[C@H](CN(C)C)C3)nc12` (relative stereo) [Example 72, 2-((((cis)-3-((Dimethylamino)methyl)cyclohexyl)thio)methyl)-8-methyl quinazolin-4(3H)-one Trifluoroacetate] was tested. Which IC50 did it give?
Answer: The IC50 was over 10 µM.
